From patent US10294202B2, “Pyrrolidinones as herbicides” (FMC Corporation, priority 2013, dated 2019)

How the values were obtained:
ragweed = test: Test A pre-/postemergence herbicide test; type: in vivo, Ambrosia elatior
In short: (§1)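 Seeds sown in loam soil/sand blend received a preemergence directed soil spray of test chemical in non-phytotoxic solvent with surfactant; postemergence plants (2–10 cm, one- to two-leaf stage) were sprayed with the same formulation. After about 10 days in greenhouse, injury was rated visually versus untreated controls, 0 (no effect) to 100 (complete control).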

ryegrass, Italian = test: Test A pre-/postemergence herbicide test; type: in vivo, Lolium multiflorum
In short: as §1

rice = test: Test B flooded paddy test; type: in vivo, Oryza sativa; conditions: 500 g ai/ha, Flood; scale of 0 to 100 where 0 is no effect and 100 is complete control
In short: (§2)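 Treatment was made at the 2-leaf stage by dosing the standing floodwater, kept 3 cm above soil level for the whole test. Greenhouse exposure lasted 13 to 15 days. Response is a visual percent rating relative to controls, where a dash indicates no test result.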

ducksalad = test: Test B flooded paddy test; type: in vivo, Heteranthera limosa; conditions: 500 g ai/ha, Flood; scale of 0 to 100 where 0 is no effect and 100 is complete control
In short: as §2

pigweed = test: Test A pre-/postemergence herbicide test; type: in vivo, Amaranthus retroflexus
In short: as §1

wheat = test: Test A pre-/postemergence herbicide test; type: in vivo, Triticum aestivum; conditions: Postemergence
In short: as §1

sedge, umbrella = test: Test B flooded paddy test; type: in vivo, Cyperus difformis; conditions: 500 g ai/ha, Flood; scale of 0 to 100 where 0 is no effect and 100 is complete control
In short: as §2

blackgrass = test: Test A postemergence herbicide test; type: in vivo, Alopecurus myosuroides
In short: (§3)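 Plants at the one- to two-leaf stage, 2–10 cm tall, grown in loam/sand pots, received postemergence sprays of the test chemicals. After about 10 days in the greenhouse, injury was scored visually against untreated controls on a 0–100 scale (0 none, 100 complete control).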

barnyardgrass [1] = test: Test B flooded paddy test; type: in vivo, Echinochloa crus-galli; conditions: 500 g ai/ha, Flood; scale of 0 to 100 where 0 is no effect and 100 is complete control
In short: as §2

corn = test: Test A pre-/postemergence herbicide test; type: in vivo, Zea mays; conditions: Postemergence
In short: as §1

barnyardgrass [2] = test: Test A pre-/postemergence herbicide test; type: in vivo, Echinochloa crus-galli
In short: as §1

giant foxtail = test: Test A pre-/postemergence herbicide test; type: in vivo, Setaria faberii
In short: as §1

kochia = test: Test A pre-/postemergence herbicide test; type: in vivo, Kochia scoparia
In short: as §1

galium = test: Test A postemergence herbicide test; type: in vivo, Galium aparine
In short: as §3

[3] = Postemergence, 125 g ai/ha, visual rating on 0 to 100 scale (0 no effect, 100 complete control), approx. 10 days
[4] = Postemergence, 500 g ai/ha, 0 to 100 scale (0 no effect, 100 complete control)
[5] = Preemergence, 125 g ai/ha, 0 to 100 scale where 0 is no effect and 100 is complete control
[6] = preemergence, 500 g ai/ha, 0 to 100 scale, 0 is no effect and 100 is complete control
[7] = Preemergence, 500 g ai/ha, visual rating on 0 to 100 scale (0 no effect, 100 complete control)
[8] = 125 g ai/ha, visual rating on 0 to 100 scale (0 no effect, 100 complete control), approx. 10 days
[9] = 500 g ai/ha, 0 to 100 scale (0 no effect, 100 complete control)

| Structure (SMILES) | Plant response rating, Ragweed (ragweed; [3]) | Plant response rating, Ragweed (ragweed; [4]) | Plant response rating, Ragweed (ragweed; [5]) | Plant response rating, Ryegrass, Italian (ryegrass, Italian; [3]) | Plant response rating, Ryegrass, Italian (ryegrass, Italian; [4]) | Plant response rating, Ryegrass, Italian (ryegrass, Italian; [5]) | Ryegrass, Italian plant response rating (ryegrass, Italian; [7]) | Plant response rating, Rice (rice) | Plant response rating, Ducksalad (ducksalad) | Plant response rating, Pigweed (pigweed; [3]) | Plant response rating, Pigweed (pigweed; [4]) | Plant response rating, Pigweed (pigweed; [5]) | Plant response rating, Wheat (wheat; [8]) | Plant response rating, Wheat (wheat; [9]) | Plant response rating, Sedge, Umbrella (sedge, umbrella) | Plant response rating, Blackgrass (blackgrass; [8]) | Plant response rating, Blackgrass (blackgrass; [9]) | Plant response rating, Barnyardgrass (barnyardgrass [1]) | Plant response rating, Corn (corn; [8]) | Plant response rating, Corn (corn; [9]) | other results |
| --- | --- | --- | --- | --- | --- | --- | --- | --- | --- | --- | --- | --- | --- | --- | --- | --- | --- | --- | --- | --- | --- |
| O=C1NCC(c2cc3ccccc3s2)C1C(=O)Nc1ccccc1C(F)(F)F (stereo not drawn) [Compound 297] | 0 | 0 | 0 | 0 | 0 | 0 | 0 | 0 | 0 | 0 | 0 | 0 | 0 | 0 | 0 | 0 | 10 | 0 | 0 | 0 | Plant response rating, Ragweed (ragweed; [6]): 0; Plant response rating, Pigweed (pigweed; [6]): 0; Plant response rating, Barnyardgrass (barnyardgrass [2]; [3]): 0; Plant response rating, Barnyardgrass (barnyardgrass [2]; [4]): 0; Plant response rating, Barnyardgrass (barnyardgrass [2]; [5]): 0; Plant response rating, Barnyardgrass (barnyardgrass [2]; [6]): 50; Plant response rating, Foxtail, Giant (giant foxtail; [3]): 0; Plant response rating, Foxtail, Giant (giant foxtail; [4]): 0; Plant response rating, Foxtail, Giant (giant foxtail; [5]): 30; Plant response rating, Foxtail, Giant (giant foxtail; [6]): 70; Plant response rating, Kochia (kochia; [3]): 0; Plant response rating, Kochia (kochia; [4]): 0; Plant response rating, Kochia (kochia; [5]): 0; Plant response rating, Kochia (kochia; [6]): 0; Plant response rating, Galium (galium; [8]): 0; Plant response rating, Galium (galium; [9]): 0 |
| O=C1NCC(c2cnn(CC(F)(F)F)c2)C1C(=O)Nc1cccc(F)c1F (stereo not drawn) [Compound 299] | 0 | 0 | 0 | 0 | 0 | 0 | 0 | 0 | 50 | 0 | 0 | 0 | 0 | 0 | 0 | 0 | 0 | 30 | 0 | 0 | Plant response rating, Ragweed (ragweed; [6]): 0; Plant response rating, Pigweed (pigweed; [6]): 0; Plant response rating, Barnyardgrass (barnyardgrass [2]; [3]): 30; Plant response rating, Barnyardgrass (barnyardgrass [2]; [4]): 70; Plant response rating, Barnyardgrass (barnyardgrass [2]; [5]): 10; Plant response rating, Barnyardgrass (barnyardgrass [2]; [6]): 70; Plant response rating, Foxtail, Giant (giant foxtail; [3]): 0; Plant response rating, Foxtail, Giant (giant foxtail; [4]): 50; Plant response rating, Foxtail, Giant (giant foxtail; [5]): 50; Plant response rating, Foxtail, Giant (giant foxtail; [6]): 80; Plant response rating, Kochia (kochia; [3]): 0; Plant response rating, Kochia (kochia; [4]): 0; Plant response rating, Kochia (kochia; [5]): 0; Plant response rating, Kochia (kochia; [6]): 0; Plant response rating, Galium (galium; [8]): 0; Plant response rating, Galium (galium; [9]): 0 |
| CC1(c2ccccc2)CNC(=O)C1C(=O)Nc1ccccc1F (stereo not drawn) [Compound 301] | 0 | 0 | 0 | 0 | 0 | 0 | 0 | 0 | 0 | 0 | 0 | 0 | 0 | 0 | 0 | 0 | 0 | 0 | 0 | 0 | Ragweed plant response rating (ragweed; [7]): 0; Pigweed plant response rating (pigweed; [7]): 0; Plant response rating, Barnyardgrass (barnyardgrass [2]; [3]): 0; Plant response rating, Barnyardgrass (barnyardgrass [2]; [4]): 0; Plant response rating, Barnyardgrass (barnyardgrass [2]; [5]): 0; Barnyardgrass plant response rating (barnyardgrass [2]; [7]): 0; Plant response rating, Foxtail, Giant (giant foxtail; [3]): 0; Plant response rating, Foxtail, Giant (giant foxtail; [4]): 0; Plant response rating, Foxtail, Giant (giant foxtail; [5]): 0; Foxtail, Giant plant response rating (giant foxtail; [7]): 0; Plant response rating, Kochia (kochia; [3]): 0; Plant response rating, Kochia (kochia; [4]): 0; Plant response rating, Kochia (kochia; [5]): 0; Kochia plant response rating (kochia; [7]): 0; Plant response rating, Galium (galium; [8]): 0; Plant response rating, Galium (galium; [9]): 0 |
| O=C1NCC(c2cccc(Br)c2)C1C(=O)Nc1ccc(F)cc1F (stereo not drawn) [Compound 308] | 0 | 0 | 0 | 0 | 0 | 0 | 0 | 0 | 90 | 0 | 0 | 0 | 0 | 20 | 0 | 50 | 70 | 70 | 0 | 10 | Ragweed plant response rating (ragweed; [7]): 0; Pigweed plant response rating (pigweed; [7]): 0; Plant response rating, Barnyardgrass (barnyardgrass [2]; [3]): 70; Plant response rating, Barnyardgrass (barnyardgrass [2]; [4]): 70; Plant response rating, Barnyardgrass (barnyardgrass [2]; [5]): 70; Barnyardgrass plant response rating (barnyardgrass [2]; [7]): 80; Plant response rating, Foxtail, Giant (giant foxtail; [3]): 70; Plant response rating, Foxtail, Giant (giant foxtail; [4]): 80; Plant response rating, Foxtail, Giant (giant foxtail; [5]): 80; Foxtail, Giant plant response rating (giant foxtail; [7]): 90; Plant response rating, Kochia (kochia; [3]): 0; Plant response rating, Kochia (kochia; [4]): 0; Plant response rating, Kochia (kochia; [5]): 0; Kochia plant response rating (kochia; [7]): 0; Plant response rating, Galium (galium; [8]): 0; Plant response rating, Galium (galium; [9]): 0 |
